ChEMBL document CHEMBL2407053, “Pharbinilic acid, an allogibberic acid from morning glory (Pharbitis nil)” (J Nat Prod, 2013)

Tests used:
HCT-15 = assay: Cytotoxicity against human HCT15 cells by sulforhodamine B assay; format: functional, cell-based
BV-2 [1] = assay: Antiinflammatory activity against mouse BV2 cells assessed as inhibition of LPS-induced NO production incubated for 30 mins prior to LPS-challenge measured after 24 hrs by Griess assay; format: functional, cell-based
SK-MEL-2 = assay: Cytotoxicity against human SK-MEL-2 cells by sulforhodamine B assay; format: functional, cell-based
SK-OV-3 = assay: Cytotoxicity against human SKOV3 cells by sulforhodamine B assay; format: functional, cell-based
A549 = assay: Cytotoxicity against human A549 cells by sulforhodamine B assay; format: functional, cell-based
BV-2 [2] = assay: Cytotoxicity against mouse BV2 cells by MTT assay; format: cell-based

Compound: C=C1C[C@]23C[C@@]1(O)CC[C@H]2c1cc2c(C(=O)O)coc2c(C)c1[C@@H]3C(=O)O
- IC50 (HCT-15): 6.79 µM
- IC50 (BV-2 [1]): 32.9 µM
- IC50 (SK-MEL-2): 8.36 µM
- IC50 (SK-OV-3): 4.83 µM
- IC50 (A549): 15.7 µM
- Activity (BV-2 [2]): Non-toxic
